Blank lines part the entries; values can stand above or below the compound they belong to. Activity calls are given as the source filed them. The calls are words filed in the database; no cut-off is given here.
Experiments:
Protease [1] = target: T1, Protease (Human immunodeficiency virus 1, UniProt Q9YQ12); assay: Inhibition of HIV1 protease
[2] = target: Human immunodeficiency virus type 1 integrase (Human immunodeficiency virus 1, UniProt Q7ZJM1); assay: Inhibition of HIV1 integrase strand transfer activity
[3] = Inhibition of HIV2 protease; set-up: species or system Human immunodeficiency virus 2
Protease [4] = target: T1, Protease; assay: Inhibition of recombinant HIV1 protease after 30 mins by reverse phase HPLC
[5] = target: Protease (Human immunodeficiency virus 1) (UniProt Q9YQ12); assay: (§1) Inhibition of HIV1 protease dimerization by Zhang-Poorman kinetic assay
Protease [6] = target: T1, Protease; assay: Competitive inhibition of HIV1 protease by Lineweaver-Burke plot analysis
Protease [7] = target: T1, Protease; assay: as §1

- IC50 (Protease [4]): 2.9 µM
- inhibition [5]: inactive
- Ki (Protease [6]): 4 µM
Structure (SMILES): CC(C)=CCC/C(C)=C/CC/C(=C/Cc1cc(O)ccc1O)C(=O)O [GANOMYCIN B]

- Ki (Protease [7]): 17.5 µM
Structure (SMILES): CC1=CC[C@H]([C@@H](C)[C@H]2CC[C@@]3(C)C4=C(C=C5C=CC(=O)OC(C)(C)[C@@H]5CC4)CC[C@]23C)OC1=O [SCHISANLACTONE A]

More lines, now with the values behind:

Structure (SMILES): CC(C)c1cc2c(c(O)c1O)[C@@]1(C(=O)O)CCCC(C)(C)[C@@H]1CC2 [CARNOSIC ACID]
- IC50 (Protease [1]): 0.24 µM

Structure (SMILES): COc1cc(/C=C/C(=O)CC(=O)/C=C/c2ccc(O)c(OC)c2)ccc1O [CURCUMIN]
- IC50 [2]: 40 µM
- IC50 (Protease [1]): 100 µM
- IC50 [3]: 250 µM

Structure (SMILES): CC(C)=CCC/C(C)=C/CCC1=C[C@@H](c2cc(O)ccc2O)OC1=O [GANOMYCIN I]
- IC50 (Protease [4]): 21.9 µM
